Tests used:
[1] = system: antibodies in sera from SARS patients (sera 1a, 1b, 2, 6, 37, 62, London, SARS-yellow, SARS-green); type: binding, human; design: Binding of serum 6 to linear peptides of protein X1 of SARS-CoV Urbani / Binding of serum 37 to linear peptides of protein X1 of SARS-CoV Urbani / Binding of serum 6 to looped/cyclic peptide (PEPSCAN-ELISA) / Binding of serum 37 to looped/cyclic peptide (PEPSCAN-ELISA) / Binding of serum 37 to looped/cyclic peptides of protein X1 of SARS-CoV Urbani / Binding of serum 6 to linear peptides of protein X2 / Binding of serum 37 to linear peptides of protein X2 / Binding of serum 37 to looped/cyclic peptides of protein X2 of SARS-CoV Urbani / Binding of serum 6 to linear peptides of protein M of SARS-CoV Urbani / Binding of serum 37 to linear peptides of protein M of SARS-CoV Urbani / Binding of serum 6 to looped/cyclic peptides of protein M of SARS-CoV Urbani / Binding of serum 37 to looped/cyclic peptides of protein M of SARS-CoV Urbani / Binding of serum 6 to linear peptides of protein X3 of SARS-CoV Urbani / Binding of serum 37 to linear peptides of protein X3 of SARS-CoV Urbani / Binding of serum 37 to looped/cyclic peptides of protein X3 of SARS-CoV Urbani / Binding of serum 6 to linear peptides of protein X4 of SARS-CoV Urbani / Binding of serum 37 to linear peptides of protein X4 of SARS-CoV Urbani / Binding of serum 37 to looped/cyclic peptides of protein X4 of SARS-CoV Urbani / Binding of serum 6 to linear peptides of protein X5 of SARS-CoV Urbani / Binding of serum 37 to linear peptides of protein X5 of SARS-CoV Urbani / Binding of serum 37 to looped/cyclic peptides of protein X5 of SARS-CoV Urbani / Binding of serum 6 to linear peptides of protein N of SARS-CoV Urbani / Binding of serum 37 to linear peptides of protein N of SARS-CoV Urbani / Binding of serum 6 to linear peptide (PEPSCAN-ELISA) / Binding of serum 1a to looped/cyclic peptides of protein N of SARS-CoV Urbani / Binding of serum 1b to looped/cyclic peptides of protein N of SARS-CoV Urbani / Binding of serum 2 to looped/cyclic peptides of protein N of SARS-CoV Urbani / Binding of serum 6 to looped/cyclic peptides of protein N of SARS-CoV Urbani / Binding of serum 37 to looped/cyclic peptides of protein N of SARS-CoV Urbani / Binding of serum 62 to looped/cyclic peptides of protein N of SARS-CoV Urbani / Binding of serum London to looped/cyclic peptides of protein N of SARS-CoV Urbani / Binding of serum SARS-green to looped/cyclic peptides of protein N of SARS-CoV Urbani: unit not given here
[2] = system: control sera (pooled serum of ten healthy LUMC hospital workers; commercial negative donor pooled serum from the Dutch bloodbank); type: binding, human; design: Binding of Control serum LUMC to linear peptides / Binding of Control serum Blood-bank to linear peptides / Binding of Control serum LUMC to looped peptides / Binding of Control Serum Blood-Bank to Looped peptides / Binding of Control serum LUMC to linear peptides of the protein M of SARS-CoV Urbani / Binding of Control serum Blood-bank to linear peptides of the protein M of SARS-CoV Urbani / Binding of Control serum LUMC to looped peptides of the protein M of SARS-CoV Urbani / Binding of Control Serum Blood-Bank to Looped peptides of the protein M of SARS-CoV Urbani: unit not given here
[3] = system: rabbit serum obtained by immunizing a rabbit with the SARS-CoV strain Frankfurt 1; type: binding; design: Binding of a rabbit serum to linear peptides / Binding of a rabbit serum to looped peptides / Rabbit serum linear peptides / Rabbit serum looped peptides / Binding of a rabbit serum to linear peptides of protein N of SARS-CoV Urbani (Rabbit serum linear peptides) / Binding of a rabbit serum to looped/cyclic peptides of protein N of SARS-CoV Urbani (Rabbit serum looped peptides): unit not given here
[4] = system: recombinant human anti-SARS-CoV antibody 03-018; type: binding; design: Binding of antibody 03-018 to linear peptides of the N protein of SARS-CoV Urbani / Binding of antibody 03-018 to looped/cyclic peptides of the N protein of SARS-CoV Urbani: unit not given here

Sequence | Binding of serum 1a to linear peptides of protein N of SARS-CoV Urbani [1] | Binding of serum 1a to looped/cyclic peptides of protein N of SARS-CoV Urbani [1] | Binding of serum 1b to linear peptides of protein N of SARS-CoV Urbani [1] | Binding of serum 1b to looped/cyclic peptides of protein N of SARS-CoV Urbani [1] | Binding of serum 2 to linear peptides of protein N of SARS-CoV Urbani [1] | Binding of serum 2 to looped/cyclic peptides of protein N of SARS-CoV Urbani [1] | Binding of serum 6 to linear peptides of protein N of SARS-CoV Urbani [1] | Binding of serum 6 to looped/cyclic peptides of protein N of SARS-CoV Urbani [1] | Binding of serum 37 to linear peptides of protein N of SARS-CoV Urbani [1] | Binding of serum 37 to looped/cyclic peptides of protein N of SARS-CoV Urbani [1] | Binding of serum 62 to linear peptides of protein N of SARS-CoV Urbani [1] | Binding of serum 62 to looped/cyclic peptides of protein N of SARS-CoV Urbani [1] | Binding of serum London to linear peptides of protein N of SARS-CoV Urbani [1] | Binding of serum London to looped/cyclic peptides of protein N of SARS-CoV Urbani [1] | Binding of serum SARS-green to linear peptides of protein N of SARS-CoV Urbani [1] | Binding of serum SARS-green to looped/cyclic peptides of protein N of SARS-CoV Urbani [1] | Binding of serum SARS-yellow to linear peptides of protein N of SARS-CoV Urbani [1] | Binding of serum SARS-yellow to looped/cyclic peptides of protein N of SARS-CoV Urbani [1] | Binding of a rabbit serum to linear peptides of protein N of SARS-CoV Urbani (Rabbit serum linear peptides) [3] | Binding of a rabbit serum to looped/cyclic peptides of protein N of SARS-CoV Urbani (Rabbit serum looped peptides) [3] | other results
QNGGRNGARPKQRRP | 0.2 | 0.3 | 0.1 | 0.1 | 0.3 | 0.3 | 0.2 | 0.2 | 0.7 | 0.6 | 0.8 | 0.4 | 0.5 | 0.3 | 0.5 | 0.6 | 0.7 | 0.5 | 0.2 | 0.4 | Binding of Control Serum Blood-Bank to Looped peptides [2]: 0.6; Binding of Control serum Blood-bank to linear peptides [2]: 0.6; Binding of Control serum LUMC to linear peptides [2]: 0.8; Binding of Control serum LUMC to looped peptides [2]: 0.8; Binding of antibody 03-018 to linear peptides of the N protein of SARS-CoV Urbani [4]: 0.2; Binding of antibody 03-018 to looped/cyclic peptides of the N protein of SARS-CoV Urbani [4]: 0.3
TVTLLPAADMDDFSR | 0.2 | 0.3 | 0.1 | 0.2 | 0.1 | 0.2 | 0.2 | 0.0 | 0.7 | 0.4 | 0.5 | 0.1 | 0.5 | 0.2 | 0.3 | 0.5 | 0.5 | 0.2 | 0.1 | 0.3 | Control Serum Blood-Bank Looped peptides [2]: 0.3; Control serum Blood-bank linear peptides [2]: 0.6; Control serum LUMC linear peptides [2]: 0.6; Control serum LUMC looped peptides [2]: 0.3; Binding of antibody 03-018 to linear peptides of the N protein of SARS-CoV Urbani [4]: 0.1; Binding of antibody 03-018 to looped/cyclic peptides of the N protein of SARS-CoV Urbani [4]: 0.2
